The text below walks through data of patent publication US12516024B2, “KDM4 inhibitors” (ALBERT-LUDWIGS-UNIVERSITY FREIBURG, priority 2017, dated 2026).

For data set [1], the target named is KDM5B (Homo sapiens, UniProt Q9UGL1). Description: KDM demethylase inhibition (IC50), KDM5B. The format is biochemical. The conditions noted are these: in words. Here is the method:
The expression levels in the BCSC cells of the various KDM4 family members were evaluated by western blot analysis. Metzger et al., LSD1 demethylates repressive histone marks to promote and rogen receptor-dependent transcription, 437 Nature 436 (2005). […] These observations indicate that KDM4 are therapeutic targets for treatment of BCSC populations. Accordingly, a screen to characterize KDM4(i) was performed to explore compounds suitable for treating cancers, in particular cancers such as therapy resistant clonal BCSC-originating tumors.

Data set [2] is described as follows: Pharmacokinetic study iv/po. The conditions noted are these: dose iv/po 5/10 mg/kg. The format is in vivo.

Chain of KDM5B (Q9UGL1 whole entry): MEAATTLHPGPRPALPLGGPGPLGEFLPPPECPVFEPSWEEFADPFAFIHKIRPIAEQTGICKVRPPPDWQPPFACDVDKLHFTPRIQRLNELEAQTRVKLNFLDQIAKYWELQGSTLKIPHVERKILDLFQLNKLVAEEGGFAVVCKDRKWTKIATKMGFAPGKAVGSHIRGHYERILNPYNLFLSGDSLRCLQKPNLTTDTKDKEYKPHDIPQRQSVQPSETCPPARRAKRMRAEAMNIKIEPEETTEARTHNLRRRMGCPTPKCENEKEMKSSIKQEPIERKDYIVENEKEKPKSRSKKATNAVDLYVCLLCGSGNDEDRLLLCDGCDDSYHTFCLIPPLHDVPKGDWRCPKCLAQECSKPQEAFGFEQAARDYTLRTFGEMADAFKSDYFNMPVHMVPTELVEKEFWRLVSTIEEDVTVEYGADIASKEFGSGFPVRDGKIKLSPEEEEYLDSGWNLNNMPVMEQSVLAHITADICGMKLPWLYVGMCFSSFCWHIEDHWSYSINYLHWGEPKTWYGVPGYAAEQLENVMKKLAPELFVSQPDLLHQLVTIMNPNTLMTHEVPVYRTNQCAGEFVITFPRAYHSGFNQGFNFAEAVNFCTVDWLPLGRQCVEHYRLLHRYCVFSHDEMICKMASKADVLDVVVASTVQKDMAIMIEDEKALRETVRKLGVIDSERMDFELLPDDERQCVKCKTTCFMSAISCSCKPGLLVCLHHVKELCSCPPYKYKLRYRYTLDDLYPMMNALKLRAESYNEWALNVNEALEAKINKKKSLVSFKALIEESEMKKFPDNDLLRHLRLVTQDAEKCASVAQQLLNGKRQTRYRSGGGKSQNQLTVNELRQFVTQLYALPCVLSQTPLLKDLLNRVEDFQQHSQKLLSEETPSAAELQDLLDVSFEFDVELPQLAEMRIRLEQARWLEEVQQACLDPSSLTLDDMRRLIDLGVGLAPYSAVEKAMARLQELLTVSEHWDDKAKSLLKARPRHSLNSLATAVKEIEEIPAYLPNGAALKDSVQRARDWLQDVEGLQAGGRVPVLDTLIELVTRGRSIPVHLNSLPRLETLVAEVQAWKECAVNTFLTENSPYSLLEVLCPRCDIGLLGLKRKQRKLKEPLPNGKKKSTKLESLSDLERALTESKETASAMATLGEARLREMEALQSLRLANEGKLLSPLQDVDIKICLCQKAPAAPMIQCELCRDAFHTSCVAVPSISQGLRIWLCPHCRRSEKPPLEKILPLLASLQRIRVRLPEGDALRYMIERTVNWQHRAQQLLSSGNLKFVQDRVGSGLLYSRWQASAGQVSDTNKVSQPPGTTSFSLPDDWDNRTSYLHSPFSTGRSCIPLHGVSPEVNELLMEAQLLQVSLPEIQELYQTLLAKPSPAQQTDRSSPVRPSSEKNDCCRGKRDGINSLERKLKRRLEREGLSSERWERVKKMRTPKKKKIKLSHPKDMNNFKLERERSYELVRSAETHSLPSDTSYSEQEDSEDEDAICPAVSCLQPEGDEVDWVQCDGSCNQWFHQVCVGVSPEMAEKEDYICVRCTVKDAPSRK

Take `CN(c1ccccc1)c1ccc2c(c1)CCC[C@H]2CNc1cnccc1C(=O)O` [Compound I, 3-({[(1R)-6-[methyl(phenyl)amino]-1,2,3,4-tetrahydronaphthalen-1-yl]methyl}amino)pyridine-4-carboxylic acid]: the “effect on the demethylase activity of KDM5B” value in data set [1] is “weak effect”. In data set [2] (plasma, read-out: F % (bioavailability)), the bioavailability (usually the share of a dose that reaches the circulation, judged against a reference dose that is usually intravenous) is 30.4%. In data set [2] (po), the “po ½” value came to 2.57 h.
